Measurements taken from PubChem BioAssay (NCI).
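Results reflect a 48-hour exposure of cells in 96-well plates to compound at five concentrations. TGI: concentration producing complete growth inhibition.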

Tests used:
Test in all cases: DTP human tumour cell line panel, 48 h
[1] = tested on: 786-0 renal
[2] = tested on: A498 renal
[3] = tested on: A549 NSCLC
[4] = tested on: ACHN renal
[5] = tested on: BT-549 breast
[6] = tested on: CAKI-1 renal
[7] = tested on: CCRF-CEM leukemia
[8] = tested on: COLO 205 colon
[9] = tested on: DU-145 prostate
[10] = tested on: EKVX NSCLC
[11] = tested on: HCC-2998 colon
[12] = tested on: HCT-116 colon
[13] = tested on: HCT-15 colon
[14] = tested on: HL-60(TB) leukemia
[15] = tested on: HOP-62 NSCLC
[16] = tested on: HOP-92 NSCLC
[17] = tested on: HS 578T breast
[18] = tested on: HT29 colon
[19] = tested on: IGROV1 ovarian
[20] = tested on: K-562 leukemia
[21] = tested on: KM12 colon
[22] = tested on: LOX IMVI melanoma
[23] = tested on: M14 melanoma
[24] = tested on: MALME-3M melanoma
[25] = tested on: MCF7 breast
[26] = tested on: MDA-MB-231 breast
[27] = tested on: MDA-MB-435
[28] = tested on: MDA-N
[29] = tested on: MOLT-4 leukemia
[30] = tested on: NCI-H226 lung
[31] = tested on: NCI-H23 lung
[32] = tested on: NCI-H460 lung
[33] = tested on: NCI-H522 lung
[34] = tested on: NCI/ADR-RES ovarian
[35] = tested on: OVCAR-3 ovarian
[36] = tested on: OVCAR-4 ovarian
[37] = tested on: OVCAR-5 ovarian
[38] = tested on: OVCAR-8 ovarian
[39] = tested on: PC-3 prostate
[40] = tested on: RPMI-8226 leukemia
[41] = tested on: RXF 393 renal
[42] = tested on: SF-268 CNS
[43] = tested on: SF-295 CNS
[44] = tested on: SF-539 CNS
[45] = tested on: SK-MEL-2 melanoma
[46] = tested on: SK-MEL-28 melanoma
[47] = tested on: SK-MEL-5 melanoma
[48] = tested on: SK-OV-3 ovarian
[49] = tested on: SN12C renal
[50] = tested on: SNB-19 CNS
[51] = tested on: SNB-75 CNS
[52] = tested on: SR leukemia
[53] = tested on: SW-620 colon
[54] = tested on: T-47D breast
[55] = tested on: TK-10 renal
[56] = tested on: U251 CNS
[57] = tested on: UACC-257 melanoma
[58] = tested on: UACC-62 melanoma
[59] = tested on: UO-31 renal
[60] = tested on: DLD-1 colon
[61] = tested on: DMS 114 small cell lung
[62] = tested on: KM20L2 colon
[63] = tested on: M19-MEL melanoma
[64] = tested on: SNB-78 CNS
[65] = tested on: XF 498 CNS

Compound `NC1=Nc2ccccc2Sc2nnc(-c3ccc(Cl)cc3)n21` has a TGI [1] of 82.6 µM, a TGI [2] greater than 100 µM and a TGI [3] greater than 100 µM. It also gave a TGI [4] greater than 100 µM, a TGI [5] greater than 100 µM and a TGI [6] greater than 100 µM. The TGI [7] was 56.2 µM, the TGI [8] was greater than 100 µM and the TGI [9] was greater than 100 µM. For the same compound, the TGI [10] was greater than 100 µM, the TGI [11] was greater than 100 µM and the TGI [12] was greater than 100 µM. For the same compound, the TGI [13] was greater than 100 µM, the TGI [14] was greater than 100 µM and the TGI [15] was 85 µM. For the same compound, the TGI [16] was greater than 100 µM, the TGI [17] was greater than 100 µM and the TGI [18] was greater than 100 µM. It also gave a TGI [19] greater than 100 µM, a TGI [20] of 35.7 µM and a TGI [21] greater than 100 µM. For the same compound, the TGI [22] was greater than 100 µM, the TGI [23] was greater than 100 µM and the TGI [24] was greater than 100 µM. The TGI [25] was greater than 100 µM, the TGI [26] was 73.1 µM and the TGI [27] was greater than 100 µM. It also gave a TGI [28] greater than 100 µM, a TGI [29] of 72.2 µM and a TGI [30] greater than 100 µM. It also gave a TGI [31] greater than 100 µM, a TGI [32] greater than 100 µM and a TGI [33] of 68.3 µM. The TGI [34] was greater than 100 µM, the TGI [35] was greater than 100 µM and the TGI [36] was greater than 100 µM. For the same compound, the TGI [37] was greater than 100 µM, the TGI [38] was greater than 100 µM and the TGI [39] was greater than 100 µM. For the same compound, the TGI [40] was greater than 100 µM, the TGI [41] was greater than 100 µM and the TGI [42] was 95.3 µM. For the same compound, the TGI [43] was greater than 100 µM, the TGI [44] was greater than 100 µM and the TGI [45] was greater than 100 µM. It also gave a TGI [46] greater than 100 µM, a TGI [47] greater than 100 µM and a TGI [48] greater than 100 µM. The TGI [49] was greater than 100 µM, the TGI [50] was greater than 100 µM and the TGI [51] was greater than 100 µM. It also gave a TGI [52] greater than 100 µM, a TGI [53] greater than 100 µM and a TGI [54] greater than 100 µM. It also gave a TGI [55] greater than 100 µM, a TGI [56] of 80.6 µM and a TGI [57] greater than 100 µM. The TGI [58] was greater than 100 µM and the TGI [59] was greater than 100 µM.
In the case of `Cc1cccc(C)c1NC(=O)CCCC(=O)C1CC(=O)CCC1=O` (stereo unspecified), the TGI [1] is reported as greater than 100 µM, the TGI [2] is reported as greater than 100 µM and the TGI [4] is reported as greater than 100 µM. For the same compound, the TGI [60] was greater than 100 µM, the TGI [61] was greater than 100 µM and the TGI [10] was greater than 100 µM. For the same compound, the TGI [11] was greater than 100 µM, the TGI [12] was greater than 100 µM and the TGI [13] was greater than 100 µM. For the same compound, the TGI [15] was greater than 100 µM, the TGI [18] was greater than 100 µM and the TGI [62] was greater than 100 µM. The TGI [63] was greater than 100 µM, the TGI [24] was greater than 100 µM and the TGI [29] was greater than 100 µM. For the same compound, the TGI [30] was greater than 100 µM, the TGI [31] was greater than 100 µM and the TGI [33] was greater than 100 µM. It also gave a TGI [35] greater than 100 µM, a TGI [36] greater than 100 µM and a TGI [38] greater than 100 µM. For the same compound, the TGI [40] was greater than 100 µM, the TGI [41] was greater than 100 µM and the TGI [42] was greater than 100 µM. It also gave a TGI [44] greater than 100 µM, a TGI [46] greater than 100 µM and a TGI [48] greater than 100 µM. It also gave a TGI [49] greater than 100 µM, a TGI [50] greater than 100 µM and a TGI [51] greater than 100 µM. The TGI [64] was greater than 100 µM, the TGI [52] was greater than 100 µM and the TGI [56] was greater than 100 µM. The TGI [57] was greater than 100 µM, the TGI [58] was greater than 100 µM and the TGI [59] was greater than 100 µM. The TGI [65] was greater than 100 µM.
